Target: T1, rat hepatic microsomal HMG CoA reductase (Rattus norvegicus, UniProt P51639)
T1 construct: rat hepatic microsomal HMG CoA reductase; from tissue; host or cells: rat liver microsomes
T1 sequence (P51639 1-887): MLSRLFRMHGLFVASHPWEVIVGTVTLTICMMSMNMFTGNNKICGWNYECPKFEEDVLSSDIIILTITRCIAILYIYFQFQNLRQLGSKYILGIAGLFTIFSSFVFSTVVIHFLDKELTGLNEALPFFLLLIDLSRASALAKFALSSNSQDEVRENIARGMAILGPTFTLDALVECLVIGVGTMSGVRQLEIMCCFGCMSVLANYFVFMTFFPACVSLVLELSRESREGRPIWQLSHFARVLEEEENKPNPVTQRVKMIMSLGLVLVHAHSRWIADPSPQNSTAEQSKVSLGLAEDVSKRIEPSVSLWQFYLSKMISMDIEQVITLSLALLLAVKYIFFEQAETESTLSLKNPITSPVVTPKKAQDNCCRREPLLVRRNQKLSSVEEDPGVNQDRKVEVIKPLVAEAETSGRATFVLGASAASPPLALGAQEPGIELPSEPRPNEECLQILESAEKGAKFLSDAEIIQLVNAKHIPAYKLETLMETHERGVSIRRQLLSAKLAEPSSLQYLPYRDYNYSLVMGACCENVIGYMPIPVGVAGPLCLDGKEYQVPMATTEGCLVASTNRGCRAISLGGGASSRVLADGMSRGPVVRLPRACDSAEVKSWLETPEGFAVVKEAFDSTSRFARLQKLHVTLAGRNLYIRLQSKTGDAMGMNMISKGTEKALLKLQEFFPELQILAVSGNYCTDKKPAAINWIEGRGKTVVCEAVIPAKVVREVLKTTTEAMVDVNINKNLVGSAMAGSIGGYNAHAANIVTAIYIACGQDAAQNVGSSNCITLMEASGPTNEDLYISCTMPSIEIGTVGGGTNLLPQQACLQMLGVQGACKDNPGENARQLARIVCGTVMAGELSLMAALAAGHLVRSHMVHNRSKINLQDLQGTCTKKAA
Assay: inhibition of rat hepatic microsomal HMG CoA reductase activity in vitro (Table I)
Assay type: biochemical
Details: for inhibition at 0.24 µg/mL: 0.24 micrograms/ml; for inhibition at 0.74 µg/mL: 0.74 micrograms/ml; for inhibition at 2.22 µg/mL: 2.22 micrograms/ml; for inhibition at 6.66 µg/mL: 6.66 micrograms/ml; for inhibition at 20 µg/mL: 20.0 micrograms/ml
From the text: In the table the concentrations of the test compounds are expressed in micrograms/ml.

Row | Structure (SMILES) | inhibition at 0.24 µg/mL [%] | inhibition at 0.74 µg/mL [%] | inhibition at 2.22 µg/mL [%] | inhibition at 6.66 µg/mL [%] | inhibition at 20 µg/mL [%] | inhibition at 2 µg/mL (2.0 micrograms/ml) [%]
1 | CC(C)n1c(/C=C/C(O)CC(O)CC(=O)O)c(-c2ccc(F)cc2)c2ccccc2c1=O (stereo not drawn) [Compound F, sodium (E)-3,5-dihydroxy-7-[4-(4-fluorophenyl)-2-isopropyl-1-oxo-1,2-dihydroisoquinolin-3-yl]hept-6-enoate] | 37 | 59 | 80 | 91 | 97 | 
2 | CC(C)n1c(/C=C/C(O)CC(O)CC(=O)O)c(-c2ccc(F)cc2)c2ccccc2c1=O (stereo not drawn) [Compound E, (E)-3,5-dihydroxy-7-[4-(4-fluorophenyl)-2-isopropyl-1-oxo-1,2-dihydroisoquinolin-3-yl]hept-6-enoic acid] | 15 | 28 | 61 | 82 | 94 | 
3 | Cn1c(/C=C/C(O)CC(O)CC(=O)O)c(-c2ccccc2)c2ccccc2c1=O (stereo not drawn) [B, (E)-3,5-dihydroxy-7-(2-methyl-1-oxo-4-phenyl-1,2-dihydroisoquinolin-3-yl)hept-6-enoic acid] |  |  |  |  | 65 | 5

— patent US5004747A, “Isoquinolinones” (May & Baker Limited, priority 1988, dated 1991)
